In brackets after ≈: the same amount, converted by molar mass.

Data on 8 molecules can be found in ChEMBL document CHEMBL1156359, “New cytotoxic sesterterpenes from the sponge Sarcotragus species” (2001).

Common to all, as to type: functional
Conditions in all cases: read-out: ED50 (the source's name)

Experiment [1] concerns A549. Description: Cytotoxicity against human A549 cells.
The test system of experiment [2] is XF498. The experiment in a line: Cytotoxicity against human XF498 cells.
Experiment [3] relates to SK-MEL-2. Description: Cytotoxicity against human SK-MEL-2 cells.
Experiment [4] has as its system HCT-15. Description: Cytotoxicity against human HCT15 cells.
Experiment [5] deals with SK-OV-3. Description: Cytotoxicity against human SKOV3 cells.

For `CC1=C(O)[C@H](C/C(C)=C\CCC(C)/C=C\C=C(\C)CCCc2ccoc2)OC1=O` (stereo not given in full) [SARCOTIN B], the EC50 amounted to 10.1 µg/mL (≈ 25.3 µM) in experiment [1]; 8.89 µg/mL (≈ 22.3 µM) in experiment [2]; 7.78 µg/mL (≈ 19.5 µM) in experiment [3]; 8.95 µg/mL (≈ 22.5 µM) in experiment [4]; 11.3 µg/mL (≈ 28.4 µM) in experiment [5].
As to `COc1cccc2c1C(=O)c1c(O)c3c(c(O)c1C2=O)C[C@@](O)(C(=O)CO)C[C@@H]3O[C@H]1C[C@H](N)[C@H](O)[C@H](C)O1` [DOXORUBICIN], the EC50 in experiment [1] stood at 0.02 µg/mL (≈ 0.0368 µM); in experiment [2] it was 0.08 µg/mL (≈ 0.147 µM); in experiment [3], 0.02 µg/mL (≈ 0.0368 µM); in experiment [4] it was 0.04 µg/mL (≈ 0.0736 µM); in experiment [5] it was 0.11 µg/mL (≈ 0.202 µM).
On to `CC1=C(O)[C@@H](C/C(C)=C\CCC(C)/C=C/C=C(\C)CCCc2ccoc2)OC1=O` (stereo not given in full) [SARCOTIN A], for which the EC50 in experiment [1] was 29.7 µg/mL (≈ 74.5 µM); in experiment [2], 24.8 µg/mL (≈ 62.3 µM); in experiment [3], more than 30 µg/mL; in experiment [4], 27.2 µg/mL (≈ 68.2 µM); in experiment [5], 22.1 µg/mL (≈ 55.4 µM).
Taken in the same sequence, the figures for `CC1=C(O)/C(=C/[C@H](C)CC/C=C(/C)CCCc2coc(Cc3ccoc3)c2)OC1=O` [IRCININ 2] were 3.8 µg/mL (≈ 9.26 µM), 3.7 µg/mL (≈ 9.01 µM), 5.87 µg/mL (≈ 14.3 µM), 4.74 µg/mL (≈ 11.5 µM) and 5.9 µg/mL (≈ 14.4 µM).
For the molecule `CC1=C(O)/C(=C\[C@H](C)CCC/C(C)=C/CCc2coc(Cc3ccoc3)c2)OC1=O` [SARCOTIN D], the EC50 in experiment [1] came out at 4.98 µg/mL (≈ 12.1 µM); in experiment [2], 6.52 µg/mL (≈ 15.9 µM); in experiment [3], 10.2 µg/mL (≈ 24.8 µM); in experiment [4], 9.82 µg/mL (≈ 23.9 µM); in experiment [5], 9.39 µg/mL (≈ 22.9 µM).
On the same counts, the results for `CC1=C(O)/C(=C/[C@H](C)CCC/C(C)=C/CCc2coc(Cc3ccoc3)c2)OC1=O` [IRCININ 1] are 3.72 µg/mL (≈ 9.06 µM), 5.42 µg/mL (≈ 13.2 µM), 8.95 µg/mL (≈ 21.8 µM), 6.91 µg/mL (≈ 16.8 µM) and 6.55 µg/mL (≈ 16 µM).
Taken in the same sequence, the figures for `CC1=C(O)[C@@H](C/C(C)=C\CC/C(C)=C/CC/C(C)=C/CCc2ccoc2)OC1=O` were 16.9 µg/mL (≈ 42.4 µM), 20.4 µg/mL (≈ 51.2 µM), 16.3 µg/mL (≈ 40.9 µM), 27.5 µg/mL (≈ 69 µM) and 26.8 µg/mL (≈ 67.3 µM).
On the same counts, the results for `CC1=C(O)/C(=C\[C@H](C)CC/C=C(/C)CCCc2coc(Cc3ccoc3)c2)OC1=O` [SARCOTIN E] are 3.8 µg/mL (≈ 9.26 µM), 5 µg/mL (≈ 12.2 µM), 8.37 µg/mL (≈ 20.4 µM), 7.31 µg/mL (≈ 17.8 µM) and 6.24 µg/mL (≈ 15.2 µM).
